Experiments:
[1] = Particle characteristics of LNPs containing luciferase mRNA and novel ionizable lipids; assay type: physicochemical
Procedure: The lipid solution contains 4 components: a PEG-conjugated lipid, an ionizable lipid, cholesterol, and a phospholipid (e.g., DSPC). Lipid stocks were prepared using the lipid identities and molar ratios as described, to achieve a total concentration of ˜7 mg/mL in 100% ethanol. Firefly luciferase mRNA (TriLink Biotechnologies, L-7202) or ornithine transcarbamylase (OTC) mRNA (TriLink Biotechnologies, custom designed) was diluted in acetate, pH 5 buffer and nuclease free water to achieve a target concentration of 0.366 mg/mL mRNA in 100 mM acetate, pH 5. Equal volumes of the lipid and nucleic acid solutions were blended at a flow rate of 400 mL/min through a T-connector, and diluted with ˜4 volumes of PBS, pH 7.4. Formulations were placed in Slide-A-Lyzer dialysis units (MWCO 10,000) and dialyzed overnight against 10 mM Tris, 500 mM NaCl, pH 8 buffer. Following dialysis, the formulations were concentrated to ˜0.6 mg/mL using VivaSpin concentrator units (MWCO 100,000) and dialyzed overnight against 5 mM Tris, 10% sucrose, pH 8 buffer. Formulations were filtered through a 0.2 μm syringe filter (PES membrane). Nucleic acid concentration was determined by the RiboGreen assay. Particle size and polydispersity were determined using a Malvern Nano Series Zetasizer.
LNP formulations containing novel ionizable lipids all produced stable particles with high encapsulation efficiency (Tables 1-7).

[2] = system: luciferase activity in the liver; test: Luciferase activity in liver after intravenous luciferase mRNA LNP; assay type: in vivo; settings: 0.5 mg/kg IV, 6 h post-IV administration, BALB/c mice (n = 4)
Procedure: Frozen aliquots of liver were thawed and homogenized in 1 mL of 1×CCLR (Cell Culture Lysis Reagent) using a FastPrep® homogenizer. The homogenate was then centrifuged at 16,000 RPM for 10 minutes at 4° C. Twenty (20) μL of the supernatant was loaded into a 96-well white plate and luminescence measured following addition of luciferase reagent (Promega Luciferase Assay System). Luciferase activity was determined by comparing luminescence of the homogenized samples to luciferase protein standards. To account for any quenching of luminescence by components in the liver homogenate, luciferase was added to the liver homogenates of untreated animals and the resulting luminescence measured. The resulting quench factor was applied to all samples to obtain the corrected luciferase activity, and normalized per unit mass of tissue analyzed.

[3] = Parent ionizable lipid remaining in liver at 6 h after luciferase mRNA LNP (LC-MS); assay type: in vivo; settings: 6 h after IV 0.5 mg/kg Luciferase mRNA LNP
Procedure: Liver tissues were treated with PBS and homogenized with a FastPrep machine, 3 cycles of 5 m/s×15 s. Homogenates from the PBS-treated control animals was pooled and used for standard curve preparation. Samples were extracted into a deep well plate with 250 μL of an internal suitability standard. Plates were centrifuged for 15 min at 4° C. and 2000 rpm. Analysis was performed using an Agilent 6520 QTOF coupled to an Agilent 1290 UHPLC, using reverse-phase LC separation. Quantitation of the ionizable lipid was by MS/MS against a calibration curve spiked into appropriately matched blank matrix. Calibration used a similar class of synthetic lipid as internal standard.
At 6 h post-dose, some treatment groups reported lower levels of novel ionizable lipid in mouse liver compared to the benchmark (Tables 16-18).

[4] = Table 3, luciferase mRNA LNP 1.6:54.6:32.8:10.9
[5] = Table 16, female BALB/c mice (n = 4)
[6] = Table 6, luciferase mRNA LNP 1.6:54.6:32.8:10.9
[7] = Table 18, female BALB/c mice (n = 4)
[8] = Table 1, luciferase mRNA LNP 1.6:54.6:32.8:10.9
[9] = Table 1, luciferase mRNA LNP 1.6:54.6:32.8:10.9 PEG2000-C-DMA:Ionizable lipid:Cholesterol:DSPC
[10] = Table 2, luciferase mRNA LNP 1.6:54.6:32.8:10.9

CCCCCCCCCCC(CCCCCC(=O)OCC(CCCCCC)CCCCCCCC)N(CCCCCCCCCC)C(=O)CCCCN(C)C (centres unmarked) [Compound 3, 2-Hexyldecyl 7-(N-decyl-5-(dimethylamino)pentanamido)heptadecanoate]
Final Product % EE [1, 4]: 99%
Final Product PDI [1, 4]: 0.05
Final Product Z-avg [1, 4]: 91 nm
Luc Activity ([2]; Table 10): 5.94E+07 pg/g liver
Parent ionizable lipid remaining in liver, Average [3, 5]: 7.72 nmol/g liver

CCCCCCCCCCC(CCCCCC(=O)OCC(CCCCCC)CCCCCCCC)N(CCCCCCCCCC)C(=O)CCCN(C)C (centres unmarked) [Compound 4, 2-Hexyldecyl 7-(N-decyl-4-(dimethylamino)butanamido)heptadecanoate]
Final Product % EE [1, 4]: 99%
Final Product PDI [1, 4]: 0.03
Final Product Z-avg [1, 4]: 82 nm
Luc Activity ([2]; Table 10): 7.84E+07 pg/g liver
Parent ionizable lipid remaining in liver, Average [3, 5]: 18.97 nmol/g liver

CCCCCCCCCCC(CCCCCCCC(=O)OC(CCCCCC)CCCCCC)N(CCCCCCCCCC)C(=O)CCCN(C)C (centres unmarked) [Compound 5, Tridecan-7-yl 9-(N-decyl-4-(dimethylamino)butanamido)nonadecanoate]
Final Product % EE [1, 6]: 99%
Final Product PDI [1, 6]: 0.05
Final Product Z-avg [1, 6]: 68 nm
Luc Activity ([2]; Table 13): 9.49E+07 pg/g liver
Parent ionizable lipid remaining in liver, Average ([3]; Table 17, female mice (n = 4)): 49.53 nmol/g liver

CCCCCCCCCCN(C(=O)CCCN(C)C)C(CCCCCCCCC)CCCCCCC(F)(F)C(=O)OCC(CCCCCC)CCCCCCCC (centres unmarked) [Compound 17, 2-Hexyldecyl 9-(N-decyl-4-(dimethylamino)butanamido)-2,2-difluorooctadecanoate]
Final Product % EE [1, 6]: 99%
Final Product PDI [1, 6]: 0.10
Final Product Z-avg [1, 6]: 68 nm
Luc Activity ([2]; Table 13): 5.52E+07 pg/g liver
Parent ionizable lipid remaining in liver, Average ([3]; Table 17, female mice (n = 4)): 24.00 nmol/g liver
Parent ionizable lipid remaining in liver, Average [3, 7]: 36.58 nmol/g liver

CCCCCCCCCCON(C(=O)CCCCN(C)C)C(CCCCCCCCCC)CCCCCCC(=O)OCC(CCCCCC)CCCCCCCC (centres unmarked) [Compound 45]
Luc Activity ([2]; Table 13): 8.00E+07 pg/g liver
Parent ionizable lipid remaining in liver, Average ([3]; Table 17, female mice (n = 4)): 36.39 nmol/g liver

CCCCCCCCCCC(CCCCCCC(=O)OCC(CCCCCC)CCCCCCCC)N(OCCCCCCCCC)C(=O)CCCN(C)C (centres unmarked) [Compound 46]
Luc Activity ([2]; Table 13): 1.08E+08 pg/g liver
Parent ionizable lipid remaining in liver, Average ([3]; Table 17, female mice (n = 4)): 47.63 nmol/g liver

CCCCCCCCCC(CC(=O)OCC(CCCCCC)CCCCCCCC)N(CCCN(C)C)S(=O)(=O)CCCC (centres unmarked) [Compound 49, 2-Hexyldecyl 3-(N-(3-(dimethylamino)propyl)butylsulfonamido)dodecanoate]
Final Product % EE [1, 8]: 96%
Final Product PDI [1, 8]: 0.08
Final Product Z-avg [1, 9]: 61 nm
Luc Activity ([2]; Table 8): 8.36E+06 pg/g liver

CCCCCCCCCCOC(=O)CC(CCCCCCCCC)N(CCCN(C)C)S(=O)(=O)CC(CCCCCC)CCCCCCCC (centres unmarked) [Compound 50, Decyl 3-{N-[3-(dimethylamino)propyl]2-hexyldecanesulfonamido}dodecanoate]
Final Product % EE [1, 8]: 93%
Final Product PDI [1, 8]: 0.07
Final Product Z-avg [1, 9]: 61 nm
Luc Activity ([2]; Table 8): 4.82E+06 pg/g liver

CCCCCCCCCCCS(=O)(=O)N(CCCN(C)C)C(CCCCCCCCC)CC(=O)OCC(CCCCCC)CCCCCCCC (centres unmarked) [Compound 51, 2-hexyldecyl 3-{N-[3-(dimethylamino)propyl]undecane-1-sulfonamido}dodecanoate]
Final Product % EE [1, 8]: 94%
Final Product PDI [1, 8]: 0.09
Final Product Z-avg [1, 9]: 62 nm
Luc Activity ([2]; Table 8): 2.50E+07 pg/g liver

CCCCC/C=C\CCCOC(=O)CC(CCCCCCCCC)N(CCCN(C)C)S(=O)(=O)CCCCCCCCCCC (centres unmarked) [Compound 52, (Z)-Dec-4-en-1-yl 3-(N-(3-(dimethylamino)propyl)undecylsulfonamido)dodecanoate]
Final Product % EE [1, 8]: 95%
Final Product PDI [1, 8]: 0.05
Final Product Z-avg [1, 9]: 72 nm
Luc Activity ([2]; Table 8): 5.65E+06 pg/g liver

CCCCCCCCCC(=O)N(CCCN(C)C)C(CCCCCCCCC)CC(=O)NN(CCCCCCCC)CCCCCCCC (centres unmarked) [Compound 53, N-[3-(dimethylamino)propyl]-N-[1-(N′,N′-dioctylhydrazinecarbonyl)undecan-2-yl]decanamide]
Final Product % EE [1, 10]: 97%
Final Product PDI [1, 10]: (0.07)
Final Product Z-avg [1, 10]: 106 nm
Luc Activity ([2]; Table 9): 8.02E+06 pg/g liver

CCCCCCCCCC(=O)N(CCCN(C)C)C(CCCCCCCCC)CC(=O)NN=C(CCCCCCCC)CCCCCCCC (centres unmarked) [Compound 55, N-[3-(dimethylamino)propyl]-N-{1-[N′-(heptadecan-9-ylidene)hydrazinecarbonyl]undecan-2-yl}decanamide]
Final Product % EE [1, 10]: 98%
Final Product PDI [1, 10]: (0.17)
Final Product Z-avg [1, 10]: 94 nm
Luc Activity ([2]; Table 9): 1.22E+06 pg/g liver

CCCCC/C=C\CCCC(CCC/C=C\CCCCC)=NNC(=O)CC(CCCCCCCCC)N(CCCN(C)C)C(=O)CCCCCCCCC (centres unmarked) [Compound 56, N-(3-(Dimethylamino)propyl)-N-(1-(2-((6Z,15Z)-henicosa-6,15-dien-11-ylidene)hydrazineyl)-1-oxododecan-3-yl)decanamide]
Final Product % EE [1, 10]: 96%
Final Product PDI [1, 10]: (0.10)
Final Product Z-avg [1, 10]: 97 nm
Luc Activity ([2]; Table 9): 9.00E+06 pg/g liver

CCCCCCCCCC(=O)N(CCCN(C)C)C(CCCCCCCCC)CC(=O)NNC(CCCCCCCC)CCCCCCCC (centres unmarked) [Compound 58, N-[3-(dimethylamino)propyl]-N-{1-[N′-(heptadecan-9-yl)hydrazinecarbonyl]undecan-2-yl}decanamide]
Final Product % EE [1, 10]: 99%
Final Product PDI [1, 10]: (0.13)
Final Product Z-avg [1, 10]: 81 nm
Luc Activity ([2]; Table 9): 3.11E+05 pg/g liver

CCCCCCCCCCC(CCCCCCC(=O)OCCC(CCCCC)CCCCC)N(CCCCCCCC(=O)OCc1cc(CCCCCC)cc(CCCCCC)c1)C(=O)CCCN(C)C (centres unmarked) [Compound 66]
Luc Activity ([2]; Table 14): 2.00E+07 pg/g liver
Parent ionizable lipid remaining in liver, Average [3, 7]: 34.35 nmol/g liver

CCCCCCCCCCC(CCCCCCC(=O)OCCC(CCCCCC)CCCCCC)N(CCCCCCCC(=O)OCCC(CCCCCC)CCCCCC)C(=O)CCCN(C)C (centres unmarked) [Compound 69]
Luc Activity ([2]; Table 13): 4.10E+07 pg/g liver
Parent ionizable lipid remaining in liver, Average ([3]; Table 17, female mice (n = 4)): 50.57 nmol/g liver

CCCCCCCCCCC(CCCCCCC(=O)OCCC(CCCCCCC)CCCCCCC)N(CCCCCCCC(=O)OCCC(CCCCCCC)CCCCCCC)C(=O)CCCN(C)C (centres unmarked) [Compound 71]
Luc Activity ([2]; Table 13): 4.58E+07 pg/g liver
Parent ionizable lipid remaining in liver, Average ([3]; Table 17, female mice (n = 4)): 27.52 nmol/g liver

CCCCCCCCCCC(CCCCCCC(=O)OCCC(CCCCC)CCCCC)N(CCCCCCCCC(=O)OCCC(CCCCC)CCCCC)C(=O)CCCCN(C)C (centres unmarked) [Compound 75]
Luc Activity ([2]; Table 14): 2.58E+07 pg/g liver
Parent ionizable lipid remaining in liver, Average [3, 7]: 20.44 nmol/g liver

CCCCCCCCCCC(CCCCCCC(=O)OCC(CCCCCC)CCCCCCCC)N(CCCN(C)C)C(=O)CCCCCCC(=O)OCCC(CCCCCC)CCCCCC (centres unmarked) [Compound 84]
Luc Activity ([2]; Table 13): 6.26E+07 pg/g liver
Parent ionizable lipid remaining in liver, Average ([3]; Table 17, female mice (n = 4)): 38.96 nmol/g liver

CCCCCCCCCCC(CCCCCCC(=O)OCC(CCCCCC)CCCCCCCC)N(CCCN(C)C)C(=O)CCCCCCC(=O)OCCC(CCCCCCC)CCCCCCC (centres unmarked) [Compound 85]
Luc Activity ([2]; Table 13): 4.79E+07 pg/g liver
Parent ionizable lipid remaining in liver, Average ([3]; Table 17, female mice (n = 4)): 37.66 nmol/g liver

CCCCCCCCCCC(CCCCCCC(=O)OCCC(CCCCC)CCCCC)N(CCCCCC(F)C(=O)OCCC(CCCCC)CCCCC)C(=O)CCCN(C)C (centres unmarked) [Compound 86]
Luc Activity ([2]; Table 14): 1.21E+07 pg/g liver
Parent ionizable lipid remaining in liver, Average [3, 7]: 12.79 nmol/g liver
